SMILES strings stand for the structures.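 All cell lines were grown in 96-well plates and treated with compound for 48 hours. Abbreviation: GI50, concentration required for 50% inhibition of growth. Definition used: TGI = concentration required for complete inhibition of growth.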 A value given as a limit tells only on which side of the number the result lay.

Here are results for eight molecules from PubChem BioAssay (NCI).

Test systems include SK-MEL-5 melanoma; BT-549 breast; UACC-257 melanoma; MDA-MB-435; PC-3 prostate; NCI-H226 lung; OVCAR-5 ovarian.
Common to all, as to assay: growth of human tumour cells (NCI), 48 h

In the case of `O=C(Nc1ccc(Cl)c(Cl)c1)Nc1ccccc1O`, the GI50 was 7.71 µM with SK-MEL-5 melanoma; 24.9 µM in the test with BT-549 breast; 6.6 µM with UACC-257 melanoma; 3.96 µM with MDA-MB-435; 3.09 µM with PC-3 prostate; 15.9 µM in the test on NCI-H226 lung. The GI50 in the test with OVCAR-5 ovarian is 15.7 µM. For the same molecule, the TGI came out at 20.5 µM in the test on SK-MEL-5 melanoma; 91.3 µM in the test on BT-549 breast; 25 µM with UACC-257 melanoma; 15.3 µM in the test with MDA-MB-435; 27.9 µM in the test with PC-3 prostate; 53.7 µM in the test with NCI-H226 lung. The TGI with OVCAR-5 ovarian came out at 53.2 µM.

As to `Clc1ccc(N=CNc2ccc(-c3nc4ccccc4o3)cc2)cc1`, the GI50 with SK-MEL-5 melanoma is 15.4 µM; in the test on BT-549 breast it was 18.7 µM; with UACC-257 melanoma it was 32.4 µM; with MDA-MB-435 it was 21.1 µM; in the test on PC-3 prostate it was 41.7 µM; in the test on NCI-H226 lung, 27.2 µM. Moreover, the GI50 with OVCAR-5 ovarian was 33.3 µM. The TGI with SK-MEL-5 melanoma was 30.1 µM; with BT-549 breast it was 43.6 µM; in the test on UACC-257 melanoma, over 100 µM; with MDA-MB-435 it was 49.8 µM; with PC-3 prostate, over 100 µM; in the test with NCI-H226 lung it was over 100 µM. In the test with OVCAR-5 ovarian, this molecule showed a TGI of 99.6 µM.

As for `CCCCCCCCCCN1CCC(N2CCCCC2)CC1`, the GI50 in the test on SK-MEL-5 melanoma is 1.54 µM; in the test on BT-549 breast, 3.62 µM; with UACC-257 melanoma it was 1.76 µM; with MDA-MB-435 it was 1.47 µM; in the test on PC-3 prostate, 2 µM; in the test on NCI-H226 lung, 7.55 µM. For the same molecule, the GI50 in the test with OVCAR-5 ovarian is 3.74 µM. For the same molecule, the TGI in the test on SK-MEL-5 melanoma was 2.87 µM; in the test on BT-549 breast it was 16.1 µM; with UACC-257 melanoma, 3.24 µM; with MDA-MB-435 it was 3.55 µM; in the test on PC-3 prostate, 13 µM; in the test with NCI-H226 lung it was 23.4 µM. The molecule further gave a TGI with OVCAR-5 ovarian of 14.4 µM.

`CCCCCCCCCCCCOC1C(C(CC(=O)NCCN2CCCC2)NS(=O)(=O)c2cc(Cl)cc(Cl)c2)OC2OC(C)(C)OC21` (stereo not given): the GI50 is 1.81 µM with SK-MEL-5 melanoma; 1.79 µM in the test with BT-549 breast; 2.04 µM in the test with UACC-257 melanoma; 1.41 µM in the test with MDA-MB-435; 1.64 µM with PC-3 prostate; 1.86 µM in the test on NCI-H226 lung. Further, the GI50 in the test with OVCAR-5 ovarian was 2.17 µM. The TGI in the test with SK-MEL-5 melanoma was 3.27 µM; with BT-549 breast, 3.24 µM; with UACC-257 melanoma, 4.84 µM; in the test with MDA-MB-435, 3.03 µM; with PC-3 prostate, 3.02 µM; in the test with NCI-H226 lung, 4.04 µM. The same molecule came in with a TGI in the test with OVCAR-5 ovarian of 4.34 µM.

In the case of `CN1CCN(c2ccc(Nc3ncc4cc(C#N)c(=O)n(C5CCCC5)c4n3)cc2)CC1`, the GI50 was 3.17 µM with SK-MEL-5 melanoma; 2.65 µM in the test on BT-549 breast; 4.02 µM with UACC-257 melanoma; 3.1 µM in the test on MDA-MB-435; 0.611 µM in the test with PC-3 prostate; 0.84 µM in the test with NCI-H226 lung. The GI50 in the test with OVCAR-5 ovarian was 0.942 µM. Also, the TGI in the test on SK-MEL-5 melanoma was over 100 µM; with BT-549 breast, 7.58 µM; with UACC-257 melanoma it was over 100 µM; with MDA-MB-435, over 100 µM; in the test with PC-3 prostate, over 23.2 µM; with NCI-H226 lung, 10.6 µM. In addition, the TGI with OVCAR-5 ovarian is over 100 µM.

Turning to `O=C(NO)c1ccc(CN(c2cnccn2)c2cnccn2)cc1`, the GI50 in the test on SK-MEL-5 melanoma is 13.1 µM; with BT-549 breast it was 13.8 µM; with UACC-257 melanoma, 5.77 µM; in the test on MDA-MB-435, 12.2 µM; with PC-3 prostate, 11.7 µM; in the test with NCI-H226 lung, 20 µM. The GI50 in the test with OVCAR-5 ovarian is 14.7 µM. Besides, the TGI in the test with SK-MEL-5 melanoma worked out at 26.1 µM; in the test on BT-549 breast, 29.9 µM; with UACC-257 melanoma, 22.2 µM; in the test with MDA-MB-435, 27.7 µM; in the test with PC-3 prostate, 31.4 µM; in the test with NCI-H226 lung it was 65.7 µM. For the same molecule, the TGI in the test with OVCAR-5 ovarian was 52.6 µM.

On to `O=C(OCc1ccc2c(Cl)cc(Cl)c(O)c2n1)N1CCN(C(=O)c2cc3cc(F)ccc3[nH]2)CC1`, for which the GI50 was 1.11 µM in the test on SK-MEL-5 melanoma; 1.17 µM in the test with BT-549 breast; over 100 µM with UACC-257 melanoma; 0.358 µM in the test with MDA-MB-435; 1.59 µM in the test with PC-3 prostate; 45.4 µM in the test on NCI-H226 lung. The GI50 in the test with OVCAR-5 ovarian is over 37.5 µM. Moreover, the TGI was 3.9 µM in the test on SK-MEL-5 melanoma; over 24 µM in the test with BT-549 breast; over 100 µM with UACC-257 melanoma; 2.18 µM with MDA-MB-435; over 100 µM in the test with PC-3 prostate; over 100 µM in the test on NCI-H226 lung. In the test on OVCAR-5 ovarian, this molecule returned a TGI of over 100 µM.

As for `O=C1CSC(c2ccc(-c3nc4ccccc4s3)cc2)=N1`, the GI50 with SK-MEL-5 melanoma was 19.2 µM; in the test on BT-549 breast it was 36.2 µM; with UACC-257 melanoma it was 30.8 µM; in the test with MDA-MB-435, 7.54 µM; with PC-3 prostate, over 100 µM; in the test on OVCAR-5 ovarian it was 26.3 µM. Also, the TGI with SK-MEL-5 melanoma was 41.2 µM; in the test on BT-549 breast, 76.8 µM; in the test with UACC-257 melanoma it was 75.7 µM; in the test with MDA-MB-435, 24.8 µM; with PC-3 prostate it was over 100 µM; in the test with OVCAR-5 ovarian, over 100 µM.
